{
  "source": "patent US5446025A",
  "about": "“Formulations and method of the percutaneous administration of leuprolide” (Abbott Laboratories, priority 1992, dated 1995)",
  "type": "physicochemical",
  "procedure": "Partitioning studies of leuprolide free base and the acetate, palmitate, and decanesulfonate salts were conducted in Type I glass culture tubes fitted with poly(tetrafluroethylene)-lined caps. Octanol-saturated water was used to prepare solutions of leuprolide free base and the leuprolide salts at concentrations of 500 μg/ml. Ten ml of each solution and 10 ml of water-saturated octanol were placed in the glass tubes which were then tightly capped and shaken for 24 hours at 30° C. At the end of this time, the tubes were centrifuged at 2000 rpm for ten minutes. The water and octanol layers were separated and each analyzed for the concentrations of leuprolide or leuprolide salt. The octanol-water distribution coefficients, Kd, was calculated from the ratio of concentration in the non-aqueous phase and the aqueous phase.",
  "data": [
    {"compound": "CCNC(=O)[C@@H]1CCCN1C(=O)[C@H](CCCNC(=N)N)NC(=O)[C@H](CC(C)C)NC(=O)[C@@H](CC(C)C)NC(=O)[C@H](Cc1ccc(O)cc1)NC(=O)[C@H](CO)NC(=O)[C@H](Cc1c[nH]c2ccccc12)NC(=O)[C@H](Cc1c[nH]cn1)NC(=O)[C@@H]1CCC(=O)N1", "note": "[Leuprolide free base, leuprolide]", "values": [
      {"measurement": "Lipophilicity relative to the acetate salt, as measured by the octanol/water distribution coefficient", "result": "roughly six"}
    ]}
  ]
}
